Test results reported in patent publication US12364733B1, “Method for treating septic shock” (Inotrem, priority 2018, dated 2025).
“Also recorded” adds a separate entry of the source.

Legend:
[1] = system: septic shock patients; assay: Phase IIa clinical trial with nangibotide in septic shock patients: mortality; format: in vivo, human; details: for Sepsis-related mortality at 5 days, % / Sepsis-related mortality at 5 days, number of death / Sepsis-related mortality at 28 days, % / Sepsis-related mortality at 28 days, number of death / Sepsis-related mortality at 90 days, % / Sepsis-related mortality at 90 days, number of death: subgroup sTREM-1 at baseline above the median (433pg/mL); for All-cause mortality at 90 days, number of death / All-cause mortality at 5 days, % / All-cause mortality at 5 days, number of death / All-cause mortality at 28 days, % / All-cause mortality at 28 days, number of death / All-cause mortality at 90 days, %: whole population
Method: This was a randomized, double-blind, two-stage, placebo-controlled study. As described in FIG. 7, the study was composed of 2 stages with a similar treatment regimen, in which 0.3, 1.0 or 3.0 mg/kg/h of nangibotide (corresponding to peptide LR12, having an amino acid sequence as set forth in SEQ ID NO: 9, also known as motrem) was tested versus placebo. All patients with a diagnosis of septic shock were considered for study participation. All potential study patients underwent standard care management procedures. Patients with evidence of septic shock according to the Sepsis-3 definition (Singer et al, JAMA 2016) were considered for inclusion (i.e., patients suffering from sepsis and having (i) persisting hypotension requiring vasopressors to maintain their mean arterial pressure ≥65 mm Hg and (ii) a serum lactate level >2 mmol/L (18 mg/dL) despite adequate volume resuscitation).
After screening for eligibility, patients were randomized to one of the treatment arms. Then, they received either a 5 mg/kg loading dose of nangibotide over 15 minutes followed by a continuous intravenous (i.v.) infusion of nangibotide or a matching placebo on top of standard of care. Treatment with study drug was initiated as early as possible, but no later than 24 hours after the onset of septic shock, defined by the start of vasopressor therapy. Patients were treated until 12 (±2) hours after the resolution of their septic shock (defined as vasopressor withdrawal) with a maximum treatment duration of 5 days (120 hours).
(§1) Adverse events (AEs) were coded using the MedDRA dictionary version 18.1. Treatment-emergent adverse events (TEAEs) were summarized and listed. Analysis was performed in 49 septic shock patients. The demographic and baseline characteristics were summarized in a descriptive fashion within each population: categorical variables were summarized by contingency tables (frequencies and percentages). sTREM-1 levels at day 1 were also described (mean, standard deviation, standard error, median, quartiles and range, minimum and maximum values). Mortality rates were reported by frequency and percentage. For continuous endpoints, i.e., the sequential organ failure assessment (SOFA), missing data were imputed using LOCF (Last Observation Carry-Forward). For time-to-event analyses, i.e., duration of invasive mechanical ventilation (IMV), duration of continuous renal replacement therapy (CRRT), survival, censored data techniques were utilized. In addition, a sensitivity analysis of time to event data (except survival) was performed using censoring at maximum limit for the corresponding observation period (i.e., either day 28 or day 90). […] The following comparisons were made: each nangibotide dose arm to placebo, all nangibotide doses combined versus placebo, and dose-response using an ordinal trend test. Exploratory composite endpoint: incidence (number and proportion) of patients alive at day 28 and free of vasopressor, free of IMV and free of CRRT were summarized by treatment and compared between treatments with a Fisher's exact test. For pharmacodynamic markers, log transformed data were represented as percentage change from baseline at day 5 or End of Infusion (EOI) if end of infusion was stopped before day 5. […] “All nangibotide” refers to analyses obtained by pooling data from 0.3, 1 and 3 mg/kg/h nangibotide-treated groups.

[2] = system: circulating levels of endothelial injury markers, inflammatory markers and sTREM-1; assay: Phase IIa clinical trial with nangibotide: pharmacodynamic markers; format: in vivo, human
Method: The quantitative determination of sTREM-1 was carried out using the method described in Example 2.
as §1

[3] = 0.3 mg/kg/h (N = 6), 1st dose column
[4] = 0.3 mg/kg/h (N = 6), 2nd dose column
[5] = 0.3 mg/kg/h (N = 8), 3rd dose column
[6] = 0.3 mg/kg/h (N = 12), 3rd dose column
[7] = 0.3 mg/kg/h (N = 13), 1st dose column
[8] = 1.0 mg/kg/h (N = 12), 2nd dose column
[9] = pooled (N = 37), listed as nangibotide

## nangibotide (LQEEDAGEYGCM; TLT-1 peptide)
[1]; nangibotide group, whole study
  mortality vs. placebo: consistent trend in the proportion of death patients in favor of nangibotide-treated groups; also recorded: non-significant lower mortality
[1]; [3]
  Sepsis-related mortality at 5 days, %: 17%
  Sepsis-related mortality at 5 days, number of death: 1
  Sepsis-related mortality at 28 days, %: 17%
  Sepsis-related mortality at 28 days, number of death: 1
  Sepsis-related mortality at 90 days, %: 17%
  Sepsis-related mortality at 90 days, number of death: 1
[1]; [4]
  Sepsis-related mortality at 5 days, %: 17%
  Sepsis-related mortality at 5 days, number of death: 1
  Sepsis-related mortality at 28 days, %: 17%
  Sepsis-related mortality at 28 days, number of death: 1
  Sepsis-related mortality at 90 days, %: 17%
  Sepsis-related mortality at 90 days, number of death: 1
[1]; [5]
  Sepsis-related mortality at 5 days, number of death: 2
  Sepsis-related mortality at 28 days, number of death: 2
  Sepsis-related mortality at 90 days, number of death: 2
[1]; pooled (N = 20)
  Sepsis-related mortality at 5 days, %: 20%
  Sepsis-related mortality at 5 days, number of death: 4
  Sepsis-related mortality at 28 days, %: 20%
  Sepsis-related mortality at 28 days, number of death: 4
  Sepsis-related mortality at 90 days, %: 20%
  Sepsis-related mortality at 90 days, number of death: 4
[1]; 0.3 mg/kg/h (N = 12), 2nd dose column
  All-cause mortality at 90 days, number of death: 2
[1]; [6]
  All-cause mortality at 5 days, %: 17%
  All-cause mortality at 5 days, number of death: 2
  All-cause mortality at 28 days, %: 25%
  All-cause mortality at 28 days, number of death: 3
  All-cause mortality at 90 days, %: 33%
  All-cause mortality at 90 days, number of death: 4
[1]; [7]
  All-cause mortality at 5 days, %: 7.7%
  All-cause mortality at 5 days, number of death: 1
  All-cause mortality at 28 days, %: 15%
  All-cause mortality at 28 days, number of death: 2
  All-cause mortality at 90 days, %: 32%
  All-cause mortality at 90 days, number of death: 4
[1]; [8]
  All-cause mortality at 5 days, %: 8.3%
  All-cause mortality at 5 days, number of death: 1
  All-cause mortality at 28 days, %: 8.3%
  All-cause mortality at 28 days, number of death: 1
  All-cause mortality at 90 days, %: 17%
[1]; pooled (N = 37)
  All-cause mortality at 5 days, %: 11%
  All-cause mortality at 5 days, number of death: 4
  All-cause mortality at 28 days, %: 16%
  All-cause mortality at 28 days, number of death: 6
  All-cause mortality at 90 days, %: 27%
  All-cause mortality at 90 days, number of death: 10
[1]; [9]
  All-cause mortality at 28 days, %: 14%
  All-cause mortality at 28 days, number of death: 5
[2]; G2 subgroup (baseline sTREM-1 above the median 433 pg/mL) vs whole population and G1
  Ang-2 level, change from baseline: trend toward a more pronounced decrease
[2]; G2 subgroup vs whole population and G1
  IL-6 level, change from baseline: the same trend was observed
[2]; during the treatment, nangibotide-treated patients
  circulating levels of endothelial injury markers (Ang-2, VCAM-1, VGEFR-1 and E-selectin), inflammatory markers (IL-8, IL-10, MCP-1, TNF-α and IL-10) and sTREM-1: trend towards a decrease
[2]; subgroup of patients with high baseline sTREM-1 values
  sTREM-1 kinetics over time: trend towards a decrease in sTREM-1
[2]; whole population
  Ang-2 level, treatment effect: no apparent treatment effect
[2]; whole population, day 5/EOI from baseline
  sTREM-1 kinetics over time: no apparent changes over time
